Consider 20 compounds from ChEMBL document CHEMBL1127001, “Novel sigma receptor ligands 2” (Bioorg Med Chem Lett, 1993).

One experiment deals with D(2) dopamine receptor (Homo sapiens, UniProt P14416). The experiment is described as follows: Binding affinity towards dopamine D2 receptor using radiolabeled ligand [3H]spiperone.
The next experiment addresses Glutamate NMDA receptor. The experiment is described as follows: Binding affinity towards PCP receptor in rat brain membrane using radiolabeled ligand [3H]TCP (1-[1-(2-thienyl)cyclohexyl]piperidine) was determined. The format is cell membranes.
Experiment [1] has as its target T1, Sigma non-opioid intracellular receptor 1 (Homo sapiens, UniProt Q99720). The experiment is described as follows: Binding affinity towards sigma receptor using radiolabeled ligand [3H]-(+)-SKF- 10,047 was determined.
Experiment [2] addresses T1, Sigma non-opioid intracellular receptor 1. Briefly: Binding affinity for sigma receptor using [3H]-(+)-SKF- 10,047.
Experiment [3] in a line: Binding affinity towards dopamine D2 receptor using radiolabeled ligand [3H]spiperone.

D(2) dopamine receptor, sequence (P14416 whole entry): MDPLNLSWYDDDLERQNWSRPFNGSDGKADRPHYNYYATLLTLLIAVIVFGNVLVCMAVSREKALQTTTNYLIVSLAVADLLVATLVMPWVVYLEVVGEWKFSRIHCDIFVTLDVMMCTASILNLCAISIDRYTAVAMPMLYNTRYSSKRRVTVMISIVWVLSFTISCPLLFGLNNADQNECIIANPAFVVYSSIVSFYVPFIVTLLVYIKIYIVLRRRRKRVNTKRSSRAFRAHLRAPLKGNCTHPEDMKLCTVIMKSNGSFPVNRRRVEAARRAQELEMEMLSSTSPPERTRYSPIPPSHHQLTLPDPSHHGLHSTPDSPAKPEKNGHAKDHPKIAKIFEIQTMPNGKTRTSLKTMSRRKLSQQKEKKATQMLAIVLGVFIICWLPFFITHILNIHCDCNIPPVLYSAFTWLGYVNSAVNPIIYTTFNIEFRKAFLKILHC
T1 sequence (Q99720 whole entry): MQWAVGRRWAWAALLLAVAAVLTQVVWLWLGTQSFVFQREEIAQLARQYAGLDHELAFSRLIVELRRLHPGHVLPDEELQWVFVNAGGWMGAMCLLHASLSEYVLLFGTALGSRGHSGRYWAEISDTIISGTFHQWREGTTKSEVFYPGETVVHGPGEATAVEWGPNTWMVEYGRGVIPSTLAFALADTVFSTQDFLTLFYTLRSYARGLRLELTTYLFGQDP

As usually defined, the Ki is a measure of affinity in units of concentration, obtained from inhibition or displacement. Turning to `O=C1C[C@]2(CC[C@@H](OCc3ccccc3)CC2)OC=C1c1ccccc1`, the Ki on D(2) dopamine receptor and at Glutamate NMDA receptor was > 10000 nM throughout.
With `O=C1C[C@]2(CC[C@H](OCc3ccccc3)CC2)OC=C1c1ccccc1`, the Ki at D(2) dopamine receptor and at Glutamate NMDA receptor was > 10000 nM in each case.
For the compound `O=C1CC2(CCN(CCc3ccccc3)CC2)OC=C1c1ccccc1`, the inhibitory constant (Ki) is 2030 nM at D(2) dopamine receptor, > 10000 nM at Glutamate NMDA receptor and 5 nM in experiment [1].
Turning to `O=C1CC2(CCN(CCc3ccccc3)CC2)OCC1c1ccc(F)cc1` (stereo not drawn), the values for the inhibition constant Ki at D(2) dopamine receptor and at Glutamate NMDA receptor were 1530 nM and 14000 nM, respectively.
Regarding `CN1CCC2(CC1)CC(=O)C(c1ccccc1)=CO2`, the values for the Ki (on D(2) dopamine receptor; in experiment [2]) were > 100000 nM and 6880 nM, respectively.
Regarding `O=C1C=C(c2ccccc2)OC2(CCN(CCc3ccccc3)CC2)C1`, the Ki on D(2) dopamine receptor was 4200 nM; in experiment [2], 10 nM.
Turning to `O=C1CC2(CCN(CCc3ccccc3)CC2)OC=C1c1ccccc1F`, the values for the Ki (on D(2) dopamine receptor; at Glutamate NMDA receptor; in experiment [1]) were 2330 nM, 30000 nM and 1 nM, respectively.
Take `O=C1C=C(c2ccco2)OC2(CCN(CCc3ccccc3)CC2)C1`: the Ki was 7600 nM on D(2) dopamine receptor and 70 nM in experiment [2].
For the compound `O=C1CC2(CCN(CCc3ccccc3)CC2)OC=C1c1ccc(F)cc1`, the inhibitory constant (Ki) on D(2) dopamine receptor is 2900 nM; at Glutamate NMDA receptor it was 1690 nM; in experiment [1] it was 6 nM.
Take `O=C1CC2(CCN(CCc3ccccc3)CC2)OC=C1c1cccs1`: the results for the Ki (on D(2) dopamine receptor; in experiment [2]) were 1080 nM and 7 nM, respectively.
For `CN1CCC2(CC1)CC(=O)C(c1ccc(F)cc1)=CO2`, the figures for the Ki (at D(2) dopamine receptor; in experiment [2]) were > 100000 nM and 7300 nM, respectively.
On to `O=C1CC2(CN3CCC2CC3)OC=C1c1ccccc1` (stereo not drawn), for which the Ki at D(2) dopamine receptor is > 10000 nM; in experiment [2], 1590 nM.
In turn, `O=C1CC2(CCN(Cc3ccccc3)CC2)OC=C1c1ccccc1` showed a Ki at D(2) dopamine receptor of 1460 nM.
For `COc1ccc(C2=COC3(CCN(CCc4ccccc4)CC3)CC2=O)cc1`, the figures for the Ki (at D(2) dopamine receptor; in experiment [2]) were 1500 nM and 30 nM, respectively.
In the case of `CCN(CC)CCCC1(C)CC(=O)C(c2ccccc2)=CO1` (single isomer, unassigned; (-)), the Ki was > 10000 nM at D(2) dopamine receptor, > 10000 nM at Glutamate NMDA receptor and 34 nM in experiment [1].
For `CN1C2CCC1CC1(CC(=O)C(c3ccccc3)=CO1)C2` (single isomer, unassigned; (-)), the Ki is > 10000 nM on D(2) dopamine receptor and 1830 nM in experiment [2].
`O=C1C(c2ccc(F)cc2)COC12CCN(Cc1ccccc1)CC2` (single isomer, unassigned; (-)): the inhibitory constant (Ki) at Glutamate NMDA receptor stood at 2230 nM; in experiment [3], 47 nM.
Consider `CN(C)CC1(C)CC(=O)C(c2ccccc2)=CO1` (single isomer, unassigned; (-)), for which the inhibitory constant (Ki) on D(2) dopamine receptor stood at 4100 nM; in experiment [2], 352 nM.
With `O=C1CC2(CCCN(Cc3ccccc3)C2)OC=C1c1ccccc1` (single isomer, unassigned; (-)), in experiment [2], the affinity corresponds to a Ki of 13 nM.
Turning to `O=C1CC2(CCCN(Cc3ccccc3)C2)OC=C1c1ccc(F)cc1` (single isomer, unassigned; (-)), the Ki at D(2) dopamine receptor is 8780 nM; at Glutamate NMDA receptor, > 10000 nM; in experiment [1], 131 nM.
